# Measurements reported in ChEMBL document CHEMBL6092153, “Research progress of BRD4 in head and neck squamous cell carcinoma: Therapeutic application of novel strategies and mechanisms” (Bioorg Med Chem, 2024).
# What was measured:
# KYSE-510 = test: Antiproliferative activity against human KYSE-510 cells assessed as reduction in cell growth incubated for 48 hrs by MTT assay; type: functional, cell-based; conditions: KYSE-510, 48 h
# KYSE-450 = test: Antiproliferative activity against human KYSE-450 cells assessed as reduction in cell growth incubated for 48 hrs by MTT assay; type: functional, cell-based; conditions: KYSE-450, 48 h
# KYSE-150 cell line = test: Antiproliferative activity against human KYSE-150 cell line assessed as inhibition of cell growth incubated for 48 hrs by CCK-8 assay; type: functional, cell-based; conditions: KYSE-150, 48 h
# ECa-109 cell line = test: Antiproliferative activity against human EC109 cells assessed as reduction in cell viability measured after 48 hrs by CCK-8 method; type: functional, cell-based; conditions: ECa-109, 48 h
# [1] = Antiproliferative activity against human HaCaT cells assessed as inhibition of cell growth incubated for 48 hrs by SRB assay; type: toxicity, cell-based
# KYSE-140 = test: Antiproliferative activity against human KYSE-140 cells assessed as inhibition of cell growth by MTT assay; type: functional, cell-based
# FaDu = test: Antiproliferative activity against human FaDu cells assessed as inhibition of cell growth measured after 72 hrs by CCK-8 assay; type: functional, cell-based
# SAS = test: Antiproliferative activity against human SAS cells assessed as reduction in cell viability by MTT assay; type: functional, cell-based
# TE-1 = test: Antiproliferative activity against human TE-1 cells assessed as inhibition of cell growth by MTT assay; type: functional, cell-based
# [2] = Antiproliferative activity against human HOC313 cells assessed as reduction in cell viability by MTT assay; type: functional, cell-based
smiles,measurement,setting,value
Cc1sc2c(c1C)C(c1ccc(Cl)cc1)=N[C@@H](CC(=O)OC(C)(C)C)c1nnc(C)n1-2,IC50,KYSE-510,121 nM
same,IC50,KYSE-450,124 nM
same,IC50,KYSE-150 cell line,55.4 µM
same,IC50,ECa-109 cell line,100 nM
same,IC50 at 48 h,[1],320 nM
same,IC50,KYSE-140,4.16 µM
same,IC50,FaDu,9.64 µM
same,IC50,SAS,169 nM
same,IC50,TE-1,3.99 µM
same,IC50,[2],288 nM
